According to PubChem BioAssay AID602296 (Broad Institute, 2012):
Results filed as inconclusive are left out. Active and inactive are the calls of the source.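 How the source made its calls: active means fitted activation curve crossing 40% at a concentration no higher than the sample's top valid tested dose; inconclusive means flat fitted curve at 30% to 70% activation, or poor curve fit; inactive means signal decrease, flat curve within 30%, or the rest.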

The molecules below were run on NIH3T3-HGL HSF-1 response element luciferase, 48 h (assay: sustained heat shock response element induction – cell-based, mouse, luciferase, cherry-pick, dose, confirmation (AID 602296);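 further: test compounds applied by themselves with no MG132 co-treatment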).

Row | Structure (SMILES) | AC40
1 | CCOC(=O)c1cnc2ccc(C)cc2c1Sc1ccc(F)cc1 | > 12 µM (inactive)
2 | Cc1ccccc1CC(=O)NC1CCCc2ccccc21 (centres undefined) | > 26 µM (inactive)
3 | N#CCCn1cc(C=C(C#N)C#N)c(-c2ccc(-c3ccccc3)cc2)n1 | > 12 µM (inactive)
4 | CN(C)CCCn1c(N)c(C#N)c2nc(C#N)c(C#N)nc21 | > 12 µM (inactive)
5 | C=CCn1c(=O)c2ccccc2n2c(SCC(=O)Nc3sc(C)c(CC)c3C(=O)OCC)nnc12 | > 26 µM (inactive)
6 | O=C(Nc1ccccc1C(=O)OCC(=O)c1c[nH]c2ccccc12)c1ccco1 | > 26 µM (inactive)
7 | O=C(CSc1ccc(Cl)cc1)N1CCN(c2c(Cl)cccc2[N+](=O)[O-])CC1 | 3.34 µM
8 | COc1cccc(-c2nn(-c3ccccc3)cc2C(=O)n2nnc3ccccc32)c1 | > 26 µM (inactive)
9 | COCCCn1c(Cc2csc(Nc3ccc(F)cc3)n2)nnc1SCC(N)=O | > 26 µM (inactive)
10 | Cc1onc(-c2ccccc2)c1NC(=O)N(CCC#N)Cc1ccccc1 | > 26 µM (inactive)
11 | Nc1cc(-c2ccco2)no1 | > 26 µM (inactive)
12 | COc1ccc2c(c1OC)C(=O)OC2Nc1nc(-c2ccccc2)cs1 (centres undefined) | > 26 µM (inactive)
13 | ClC(Cl)c1nnc(-c2ccccc2)c(-c2c[nH]c3ccccc23)n1 | > 26 µM (inactive)
14 | CN(c1ccccc1)c1nc(N)c([N+](=O)[O-])c(N2CCCCCC2)n1 | > 26 µM (inactive)
15 | CN(Cc1ccccc1)C(=O)c1cc(-c2ccc(Br)cc2)on1 | 2.21 µM
16 | Cc1ccc(Nc2c(N)c(=O)oc3ccccc23)cc1 | > 26 µM (inactive)
17 | CCOc1cc(C(=S)N2CCOCC2)ccc1OS(=O)(=O)c1ccc(C)cc1 | > 26 µM (inactive)
18 | S=c1[nH]cc(Cc2ccccc2)s1 | 23.4 µM
19 | CCC(=O)N1CCN(c2ccc(NC(=O)COc3ccc(C)cc3C)cc2)CC1 | > 26 µM (inactive)
20 | Cc1ccc(NC2=NC3(CCCC3)N=C(N)N2)c(C)c1 | > 26 µM (inactive)
21 | CCN1CC(CN(C)Cc2nc(COc3ccccc3)no2)CC1=O (centres undefined) | > 26 µM (inactive)
22 | COc1ccc(/C=C/C(=O)NCCCc2ccccc2)cc1 | > 26 µM (inactive)
23 | CCN(CC(=O)Nc1ccc(NC(C)=O)cc1)Cc1c(O)ccc2cc(Br)ccc12 | 25.2 µM
24 | CCOc1ccc(CN(C)C(=O)CNC(=O)c2ccc3ccccc3c2)cc1OC | > 26 µM (inactive)
25 | CCOc1cc(/C=C2/SC(=S)N(CC3CCCO3)C2=O)ccc1O (centres undefined) | > 26 µM (inactive)
26 | Cc1cccc(N2C(=O)C(O)=C(C(=O)c3cccs3)C2c2ccc(C(C)C)cc2)n1 (centres undefined) | 9.04 µM
27 | O=C1Nc2ccccc2/C1=C/c1cnc[nH]1 | > 26 µM (inactive)

Row | Structure (SMILES) | AC40
28 | Cc1sc2nc(C)n(/N=C/c3ccc(O)cc3O)c(=O)c2c1C | > 26 µM (inactive)
29 | Nc1ccc(Sc2cnn(-c3ccccc3)c(=O)c2Cl)cc1 | 8.39 µM
30 | CCOP(=O)(C(NC(=O)c1ccccc1Cl)=C(Cl)Cl)c1ccccc1 (centres undefined) | > 26 µM (inactive)
31 | Cc1nc(S(=O)(=O)c2ccc(Cl)cc2)c(NCc2ccccc2)o1 | > 26 µM (inactive)
32 | c1ccc2c3c([nH]c2c1)CCNC3 | > 26 µM (inactive)
33 | O=C(CSc1cccc2cccnc12)N/N=C/c1cccnc1 | > 26 µM (inactive)
34 | C[C@H](NC(=O)[C@@H]1CSC2c3ccccc3C(=O)N21)C(=O)NCCc1ccccc1 (some centres undefined) | 24.7 µM
35 | Cc1ccc(-n2cc(CNCCN3CCOC3=O)c(-c3cccc(C)c3)n2)cc1 | 17.4 µM
36 | CC(=O)SC(C[N+](=O)[O-])c1cn(C(C)=O)c2ccccc12 (centres undefined) | > 26 µM (inactive)
37 | COCOc1cc(O)c(C(=O)/C=C/c2ccccc2)c(OCOC)c1 | 7.9 µM
38 | CC(C)NCC(O)COCc1ccc(Cl)cc1 (centres undefined) | > 26 µM (inactive)
39 | Nc1nnc(SCC(=O)Nc2cccc3ccccc23)s1 | > 26 µM (inactive)
40 | COc1ccc(/C=C2/SC(=O)N(CCNC(=O)C3COc4ccccc4O3)C2=O)cc1 (centres undefined) | 5.69 µM
41 | O=C(CN1C(=O)/C(=C\c2cccc(Cl)c2)Sc2ccccc21)NCCCN1CCOCC1 | > 12 µM (inactive)
42 | CC1(C)Cc2c(C#N)c(N)n(-c3ccccc3)c(=S)c2CO1 | > 26 µM (inactive)
43 | CN(NC1OC(=O)c2ccccc21)c1ncc(Cl)cc1C(F)(F)F (centres undefined) | > 26 µM (inactive)
44 | CC1CCCCN1C(=O)COc1ccccc1F (centres undefined) | 21.2 µM
45 | O=c1[nH]c2ccc(S(=O)(=O)Nc3ccc(-c4nnc5n4CCCCC5)cc3)cc2o1 | > 26 µM (inactive)
46 | COc1cccc(-c2nnc(SCc3nc4ccccc4[nH]3)n2N)c1 | 18.6 µM
47 | COc1ccc(/C=C/C(=O)N(C(C)C)C(C)C)cc1Br | 6.82 µM
48 | Cc1ccc(/C=C2\Oc3cc(OC(=O)N4CCOCC4)ccc3C2=O)cc1 | > 26 µM (inactive)
49 | CCS(=O)(=O)C(=C1NCCO1)S(=O)(=O)CC | > 26 µM (inactive)
50 | CCOC(=O)CN1C=C(c2ccc3ccccc3n2)C(C[N+](=O)[O-])c2ccccc21 (centres undefined) | 3.31 µM
51 | COc1ccc2cc(/C=C/C(=O)N3CCN(CC(=O)N4CCCCCC4)CC3)ccc2c1 | 12.6 µM
52 | COc1cc(CNCC(O)c2ccccc2)ccc1OCc1ccc(Cl)nc1 (centres undefined) | > 26 µM (inactive)
53 | CC1(C)CC(=O)C(C2C3=C(CC(C)(C)CC3=O)OC3=C2C(=O)CC(C)(C)C3)=C(O)C1 | > 26 µM (inactive)
54 | NC(=O)Cc1ccc2c(c1)[nH]c1ccccc12 | > 26 µM (inactive)
